Laboratory results: patent US20170008888A1 (KYORIN PHARMACEUTICAL CO., LTD., priority 2014, published 2017)
Like-named read-outs stand apart in the source and are kept apart here.

Tests used:
[1] = test system: primary human corneal epithelial cells; experiment: Cytokine response in primary human corneal epithelial cells stimulated with IFNγ, IL-1β or IL-17A; format: cell-based; conditions: Corneal epithelial cell, 24 h, 5 μM compound
Experimental: Primary corneal epithelial cells were obtained from Life Technologies (Carlsbad, Calif.) and maintained in Keratinocyte-SFM media supplemented with EGF and bovine pituitary extract (Life Technologies). Cells were seeded at 1e5 cells/ml and incubated at 37° C. in a humidified atmosphere at 5% CO2 overnight to adhere. Cells were supplement-starved overnight in unsupplemented K-SFM media containing 0.5% BSA then treated with compound for 1 h at 37° C. in a humidified atmosphere at 5% CO2. DMSO at a final concentration of 0.1% served as the non-inhibited control. Cells were stimulated with 20 ng/ml of human recombinant IFNγ (R & D Systems, Minneapolis, Minn.), IL-1β (R & D Systems), or IL-17A (eBioscience, San Diego, Calif.) for 24 h. Supernatant was then collected and analyzed for cytokine concentrations using the Bio-Plex Pro Human Cytokine 17-Plex Panel (Bio-Rad Laboratories, Hercules, Calif.) according to the manufacturer's instructions. Magnetic beads were measured on the Bio-Plex MAGPIX multiplex reader instrument using the accompanying xPONENT 4.2 acquisition software (Bio-Rad Laboratories). Data were analyzed via the Bio-Plex Manager software v6.1 (Bio-Rad Laboratories).
Percent inhibition of cytokines in culture supernatant during 5 μM compound treatment of primary corneal epithelial cells. Shown below are data from a representative experiment.

[2] = molecular target: T1, BRDT (Homo sapiens, UniProt Q58F21); experiment: Bromodomain binding assay: BRDT
T1 construct: read out by qPCR of the phage DNA
Experimental: (§1) T7 phage strains displaying bromodomains were grown in parallel in 24-well blocks in an E. coli host derived from the BL21 strain. E. coli were grown to log-phase and infected with T7 phage from a frozen stock (multiplicity of infection=0.4) and incubated with shaking at 32° C. until lysis (90-150 minutes). The lysates were centrifuged (5,000×g) and filtered (0.2 μm) to remove cell debris. […] The liganded beads were blocked with excess biotin and washed with blocking buffer (SeaBlock (Pierce), 1% BSA, 0.05 Tween 20, 1 mM DTT) to remove unbound ligand and to reduce non-specific phage binding. […] Test compounds (T62 and 46) were prepared as 1000× stocks in 100% DMSO and subsequently diluted 1:10 in monoethylene glycol (MEG) to create stocks at 100× the screening concentration (resulting stock solution is 10% DMSO/90% MEG). The compounds were then diluted directly into the assays such that the final concentration of DMSO and MEG were 0.1% and 0.9%, respectively. All reactions were performed in polystyrene 96-well plates in a final volume of 0.135 ml. […] The bromodomain concentration in the eluates was measured by qPCR. Compounds were assayed for binding activity against a panel of 40 bromodomain-containing proteins.

[3] = molecular target: T2, BAZ2B (Homo sapiens, UniProt Q9UIF8); experiment: Bromodomain binding assay: BAZ2B
T2 construct: T7 phage strains displaying bromodomains were grown in parallel; made in house; host or cells: E. coli host derived from BL21, infected with T7 phage
T2 sequence (Q9UIF8 2060-2164 limits assumed, species assumed): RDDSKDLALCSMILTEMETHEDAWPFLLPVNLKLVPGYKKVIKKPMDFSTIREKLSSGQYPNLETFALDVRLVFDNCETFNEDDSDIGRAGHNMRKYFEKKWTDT
Experimental: as §1

[4] = molecular target: T3, BRD9 (Homo sapiens, UniProt Q9H8M2); experiment: Bromodomain binding assay: BRD9
T3 construct: T7 phage strains displaying bromodomains were grown in parallel; made in house; host or cells: E. coli host derived from BL21, infected with T7 phage
T3 sequence (Q9H8M2 136-240 limits assumed, species assumed): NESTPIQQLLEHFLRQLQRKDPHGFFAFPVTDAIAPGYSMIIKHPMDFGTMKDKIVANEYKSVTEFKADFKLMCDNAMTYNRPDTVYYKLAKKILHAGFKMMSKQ
Experimental: as §1

[5] = molecular target: T4, BRPF1 (Homo sapiens, UniProt P55201); experiment: Bromodomain binding assay: BRPF1
T4 construct: T7 phage strains displaying bromodomains were grown in parallel; made in house; host or cells: E. coli host derived from BL21, infected with T7 phage
T4 sequence (P55201 628-732 limits assumed, species assumed): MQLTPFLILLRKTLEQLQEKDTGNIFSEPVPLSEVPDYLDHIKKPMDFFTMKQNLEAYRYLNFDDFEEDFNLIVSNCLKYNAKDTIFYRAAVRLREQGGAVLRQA
Experimental: as §1

[6] = molecular target: T5, SMARCA4 (Homo sapiens, UniProt P51532); experiment: Bromodomain binding assay: SMARCA4
T5 construct: made in house; host or cells: E. coli host derived from the BL21 strain (T7 phage lysate)
T5 sequence (P51532 1453-1564 limits assumed): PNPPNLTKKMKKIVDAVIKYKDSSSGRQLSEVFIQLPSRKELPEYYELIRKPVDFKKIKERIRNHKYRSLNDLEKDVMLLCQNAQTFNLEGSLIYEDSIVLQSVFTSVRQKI
Experimental: as §1

[7] = molecular target: T6, TAF1L (Homo sapiens, UniProt Q8IZX4); experiment: Bromodomain binding assay: TAF1L
T6 construct: made in house; host or cells: E. coli host derived from the BL21 strain (T7 phage lysate)
T6 sequence (Q8IZX4 1517-1626 limits assumed): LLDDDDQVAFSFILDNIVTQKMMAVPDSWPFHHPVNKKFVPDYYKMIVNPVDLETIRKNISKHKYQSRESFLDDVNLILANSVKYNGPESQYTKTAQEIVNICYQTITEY
Experimental: as §1

[8] = molecular target: T7, WDR9 (Homo sapiens, UniProt Q9NSI6); experiment: Bromodomain binding assay: WDR9
T7 construct: made in house; host or cells: E. coli host derived from the BL21 strain (T7 phage lysate)
T7 sequence (Q9NSI6 1313-1418 limits assumed): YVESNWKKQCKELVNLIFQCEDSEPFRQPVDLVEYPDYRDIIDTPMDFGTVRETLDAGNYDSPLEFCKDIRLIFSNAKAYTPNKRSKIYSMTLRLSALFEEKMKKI
Experimental: as §1

[9] = test system: human fetal lung fibroblasts (HFL-1); experiment: TGF-β-induced fibrotic response (α-SMA expression) in HFL-1; format: cell-based; conditions: HFL1, 2 ng/ml TGF-β1, 48 h, Western blot, read-out: Inhibition of α-SMA expression, EC50 (μM), HFL-1
Experimental: Nontransformed, human fetal lung fibroblasts (HFL-1) were obtained from ATCC (Manassas, Va.) and maintained in F12K media containing 10% (v/v) charcoal-dextran treated, heat inactivated FBS (Omega Scientific, Tarzana, Calif.). Primary lung fibroblasts isolated from a patient diagnosed with asthma were obtained from Lonza (Allendale, N.J.) and maintained in FGM-2 fibroblast growth medium (Lonza). Cells were seeded at a density to provide 50-60% confluence after an overnight incubation at 37° C. in a humidified atmosphere at 5% CO2. […] Protein content was determined using the Bio-Rad Dc Protein kit (Bio-Rad Laboratories, Hercules, Calif.), and normalized prior to adding an equal volume of 2× Laemmli sample buffer (Sigma). Proteins in the whole cell lysates were resolved via SDS-PAGE gel electrophoresis, and α-SMA was detected via Western blot analysis using a rabbit anti-human α-SMA polyclonal antibody (Abcam, Cambridge, Mass.). α-SMA signal was normalized to the signal of β-actin as detected using mouse anti-human […] antibody (Cell Signaling Technology). DyLight 680 and 800 conjugated secondary antibodies were used and the infrared signals were detected using the Odyssey Imaging System (LI-COR Biotechnology, Lincoln, Nebr.).

[10] = +20 ng/ml IFNγ, read-out: Percent inhibition of cytokine relative to DMSO controls, G-CSF
[11] = +20 ng/ml IFNγ, read-out: Percent inhibition of cytokine relative to DMSO controls, GM-CSF
[12] = +20 ng/ml IFNγ, read-out: Percent inhibition of cytokine relative to DMSO controls, IL-6
[13] = +20 ng/ml IFNγ, read-out: Percent inhibition of cytokine relative to DMSO controls, MCP-1
[14] = +20 ng/ml IL-1β, read-out: Percent inhibition of cytokine relative to DMSO controls, G-CSF
[15] = +20 ng/ml IL-1β, read-out: Percent inhibition of cytokine relative to DMSO controls, GM-CSF
[16] = +20 ng/ml IL-1β, read-out: Percent inhibition of cytokine relative to DMSO controls, IL-6
[17] = +20 ng/ml IL-1β, read-out: Percent inhibition of cytokine relative to DMSO controls, MCP-1
[18] = +20 ng/ml IL-17A, read-out: Percent inhibition of cytokine relative to DMSO controls, G-CSF
[19] = +20 ng/ml IL-17A, read-out: Percent inhibition of cytokine relative to DMSO controls, GM-CSF
[20] = +20 ng/ml IL-17A, read-out: Percent inhibition of cytokine relative to DMSO controls, IL-6
[21] = +20 ng/ml IL-17A, read-out: Percent inhibition of cytokine relative to DMSO controls, MCP-1

Structure (SMILES) | inhibition at 5 µM [1, 10] | inhibition at 5 µM [1, 11] | inhibition at 5 µM [1, 12] | inhibition at 5 µM [1, 13] | inhibition at 5 µM [1, 14] | inhibition at 5 µM [1, 15] | inhibition at 5 µM [1, 16] | inhibition at 5 µM [1, 17] | inhibition at 5 µM [1, 18] | inhibition at 5 µM [1, 19] | inhibition at 5 µM [1, 20] | inhibition at 5 µM [1, 21] | Kd [2] | Kd [3] | Kd [4] | Kd [5] | Kd [6] | Kd [8] | further results
CCOc1cc(C(=O)N[C@H]2CC[C@H](O)CC2)ccc1Nc1cc2c(cn1)N(C)C(=O)c1ccccc1N2C [Compound T62] | 28% | 25.4% | 67.9% | 89.5% | 89.3% | 97.1% | 88.7% | 58% | 86.4% | 89.7% | 89.6% | 36% | 397 nM | > 20 µM | > 20 µM | > 20 µM | > 20 µM | > 20 µM | Kd ([7]; read-out: Kd (nM) TAF1L): 19000 nM; Kd ([7]; read-out: Kd for binding to TAF1L): > 20000 nM
CCOc1cc(C(=O)N2CCC(N3CCN(C)CC3)CC2)ccc1Nc1cc2c(cn1)N(C)C(=O)c1ccccc1N2C [Compound 61] | – | – | – | – | – | – | – | – | – | – | – | – | – | – | – | – | – | – | EC50 [9]: 0.75 to 2.3 µM
CCOc1cc(C(=O)N2CCC(N3CCCC3)CC2)ccc1Nc1cc2c(cn1)N(C)C(=O)c1ccccc1N2C [Compound 46, 3-(2-Ethoxy-4-(4-(pyrrolidin-1-yl)piperidine-1-carbonyl)phenylamino)-5,11-dimethyl-5H-benzo[e]pyrido[3,4-b][1,4]diazepin-10(11H)-one] | 42.1% | 30.4% | 84.4% | 93.4% | 86.3% | 97% | 92.2% | 52.1% | 90.3% | 92.5% | 94.7% | 42.7% | 169 nM | > 20 µM | > 20 µM | > 20 µM | > 20 µM | > 20 µM | –
